The values that follow come from ChEMBL document CHEMBL1136535, “Unexpected inhibition of S-adenosyl-L-homocysteine hydrolase by a guanosine nucleoside” (Bioorg Med Chem Lett, 2003).

The target of this assay is Adenosylhomocysteinase (Homo sapiens) (UniProt P23526). Description: Enzyme catalytic rate kinetic constant for S-adenosyl-L-homocysteine hydrolase; Not a substrate.
Chain of Adenosylhomocysteinase (Homo sapiens) (P23526 2-432 limits assumed): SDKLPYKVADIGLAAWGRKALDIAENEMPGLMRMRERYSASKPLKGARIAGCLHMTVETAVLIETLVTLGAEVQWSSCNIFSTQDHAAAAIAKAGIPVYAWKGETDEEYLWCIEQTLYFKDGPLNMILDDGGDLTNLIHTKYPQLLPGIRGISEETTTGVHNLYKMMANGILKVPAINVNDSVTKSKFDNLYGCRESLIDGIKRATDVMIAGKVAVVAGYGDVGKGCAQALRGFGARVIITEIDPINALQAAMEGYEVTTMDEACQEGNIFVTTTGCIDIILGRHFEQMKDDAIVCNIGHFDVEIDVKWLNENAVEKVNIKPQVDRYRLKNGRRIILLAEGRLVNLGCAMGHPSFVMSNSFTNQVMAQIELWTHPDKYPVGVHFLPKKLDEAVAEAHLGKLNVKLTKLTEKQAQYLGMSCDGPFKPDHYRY

For the compound `Nc1nc(O)cc(-c2cncn2C2O[C@H](CO)[C@@H](O)[C@H]2O)n1` (stereo partly specified), the k cat result was “Not a substrate”.
